Experimental data published in patent EP2112152A1, “Dihydropteridinones as Plk Inhibitors” (GPC Biotech AG, priority 2008, dated 2009).
Where two headings read alike, the source gives them in different places.

Legend:
ACHN = test: SRB cell proliferation assay, ACHN; type: cell-based; conditions: Homo sapiens, 18-Cell Line Panel, kidney
Description: (§1) Cells were exposed to the test compounds at various concentrations appropriate to determine an IC50 for 72 hours. Cell proliferation was measured using the SRB assay according to Shekan et al (J Natl Cancer Inst (1990) 82, 1107-112) in order to estimate the IC50 values shown in Table 3. Briefly, cells were plated in 96 well dishes 24 hours prior to compound addition at the densities specified in Table 5.1. The assay was terminated with the addition of cold TCA to a final concentration of 10% after growth medium has been removed and the plates were incubated over night at 4°C. The plates were then washed 5 times with water and 100µl of a Sulforhodamine B solution (4%) was added to each well. The plates were then incubated for 10 minutes at room temperature before removal of unbound dye by washing with 1% acetic acid. The bound dye was solubilised with 10 mM Trizma base and the absorbance read at OD520.
(§2) Table 8.1: 18-Cell Line Panel

HT-29 = test: SRB cell proliferation assay, HT-29; type: cell-based; conditions: Homo sapiens
Procedure, shortened: (§3)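 Cells plated 24 h before compound, then exposed 72 h over a concentration range. TCA-fixed, sulforhodamine B-stained, bound dye read at OD520; IC50 derived from % inhibition of proliferation versus DMSO-treated cells.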

SW620 = test: SRB cell proliferation assay, SW620; type: cell-based; conditions: Homo sapiens, SW-620; 18-Cell Line Panel; colon
Description: as §1, §2

MDA-MB-468 = test: SRB cell proliferation assay, MDA-MB-468; type: cell-based; conditions: Homo sapiens, MDA-MB-468; 18-Cell Line Panel; breast
Description: as §1, §2

A-431 = test: SRB cell proliferation assay, A-431; type: cell-based; conditions: Homo sapiens, 18-Cell Line Panel, skin
Description: as §1, §2

HCT 116 = test: SRB cell proliferation assay, HCT 116; type: cell-based; conditions: Homo sapiens
Procedure, shortened: as §3

PC-3 = test: SRB cell proliferation assay, PC-3; type: cell-based; conditions: Homo sapiens, 18-Cell Line Panel, prostate
Description: as §1, §2

Plk1 = Plk1 (Homo sapiens, UniProt P53350); test: Select Screen Kinase Assay (Invitrogen Kinase Profiling Service); type: biochemical; conditions: tested at Invitrogen; read-out: IC50 values against Plk1 activity
Chain of Plk1 (P53350 whole entry, species assumed): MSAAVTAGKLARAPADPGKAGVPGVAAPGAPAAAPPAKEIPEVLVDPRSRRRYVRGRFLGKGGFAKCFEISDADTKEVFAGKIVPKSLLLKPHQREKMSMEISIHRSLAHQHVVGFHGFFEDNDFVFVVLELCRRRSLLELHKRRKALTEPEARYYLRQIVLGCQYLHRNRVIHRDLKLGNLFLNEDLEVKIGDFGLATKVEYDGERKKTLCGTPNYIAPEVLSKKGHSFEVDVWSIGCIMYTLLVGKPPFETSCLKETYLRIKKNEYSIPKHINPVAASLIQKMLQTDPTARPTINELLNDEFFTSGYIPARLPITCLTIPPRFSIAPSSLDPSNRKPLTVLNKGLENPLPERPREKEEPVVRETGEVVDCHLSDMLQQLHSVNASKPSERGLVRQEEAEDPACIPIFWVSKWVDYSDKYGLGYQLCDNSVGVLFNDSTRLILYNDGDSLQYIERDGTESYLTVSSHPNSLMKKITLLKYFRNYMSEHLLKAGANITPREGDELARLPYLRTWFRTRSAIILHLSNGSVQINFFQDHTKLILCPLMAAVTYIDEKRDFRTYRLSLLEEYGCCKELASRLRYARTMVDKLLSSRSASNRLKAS
Description: Selected compound of the present invention were tested in the Select Screen™ Kinase Profiling Service (Invitrogen Corporation, Madison, WI 53719, USA) against Plk1, under conditions of non-disclosure, non-dissemination and non-use.
In brief, compounds 1 and 13 (see Table 1) were tested at Invitrogen, and IC50 values against Plk1 activity of about 20 nM were obtained in each case.

MDA-MB-231 = test: SRB cell proliferation assay, MDA-MB-231; type: cell-based; conditions: Homo sapiens, 18-Cell Line Panel, breast
Description: as §1, §2

NCI-H460 = test: SRB cell proliferation assay, NCI-H460; type: cell-based; conditions: Homo sapiens, 18-Cell Line Panel, NSCLC
Description: as §1, §2

A-375 = test: SRB cell proliferation assay, A-375; type: cell-based; conditions: Homo sapiens, 18-Cell Line Panel, melanoma
Description: as §1, §2

SK-MEL-28 = test: SRB cell proliferation assay, SK-MEL-28; type: cell-based; conditions: Homo sapiens, 18-Cell Line Panel, melanoma
Description: as §1, §2

A549 = test: SRB cell proliferation assay, A549; type: cell-based; conditions: Homo sapiens, 18-Cell Line Panel, lung
Description: as §1, §2

DU 145 = test: SRB cell proliferation assay, DU 145; type: cell-based; conditions: Homo sapiens, 18-Cell Line Panel, prostate, read-out: IC50 DU145
Description: as §1, §2

IMR-90 = test: SRB cell proliferation assay, IMR-90; type: cell-based; conditions: Homo sapiens
Procedure, shortened: as §3

HeLa = test: SRB cell proliferation assay, HeLa; type: cell-based; conditions: Homo sapiens, 18-Cell Line Panel, cervix
Description: as §1, §2

OVCAR-3 = test: SRB cell proliferation assay, OVCAR-3; type: cell-based; conditions: Homo sapiens, 18-Cell Line Panel, ovary
Description: as §1, §2

[1] = HT-29, 18-Cell Line Panel, colon, read-out: IC50 HT-29
[2] = HT-29, 72 h, 72 hours, SRB assay, read-out: CELLULAR IC50 HT-29
[3] = HCT-116, 18-Cell Line Panel, colon, read-out: IC50 HCT116
[4] = HCT-116, 72 h, 72 hours, SRB assay, read-out: CELLULAR IC50 HCT 116
[5] = 18-Cell Line Panel, lung, read-out: IC50 IMR-90
[6] = 72 hours, SRB assay, slow cycling cell line, read-out: CELLULAR IC50 IMR-90

| SMILES | IC50 (ACHN) [nM] | IC50 (HT-29; [1]) [nM] | IC50 (HT-29; [2]) [nM] | IC50 (SW620) [nM] | IC50 (MDA-MB-468) [nM] | IC50 (A-431) [nM] | IC50 (HCT 116; [3]) [nM] | IC50 (HCT 116; [4]) [nM] | IC50 (PC-3) [nM] | IC50 (Plk1) [nM] | IC50 (MDA-MB-231) [nM] | IC50 (NCI-H460) [nM] | IC50 (A-375) [nM] | IC50 (SK-MEL-28) [nM] | IC50 (A549) [nM] | IC50 (DU 145) [nM] | IC50 (IMR-90; [5]) [nM] | IC50 (IMR-90; [6]) [nM] | IC50 (HeLa) [nM] | IC50 (OVCAR-3) [nM] |
| --- | --- | --- | --- | --- | --- | --- | --- | --- | --- | --- | --- | --- | --- | --- | --- | --- | --- | --- | --- | --- |
| CCC1C(=O)N(C)c2cnc(Nc3ccc(C(=O)N[C@H]4CC[C@H](N5CCN(CC6CC6)CC5)CC4)cc3OC)nc2N1N(C)C (relative stereo) [Compound 13, N-[trans-4-(4-Cyclopropylmethyl-piperazin-1-yl)-cyclohexyl]-4-(8-dimethylamino-7-ethyl-5-methyl-6-oxo-5,6,7,8-tetrahydro-pteridin-2-ylamino)-3-methoxy-benzamide] | < 1000 | < 1000 | < 1000 | < 1000 | > 1000 | < 1000 | < 1000 | < 1000 | < 1000 | ~20 | < 1000 | < 1000 | < 1000 | > 1000 | < 1000 | < 1000 | > 1000 | > 1000 | < 1000 | < 1000 |
| CCC1C(=O)N(C)c2cnc(Nc3ccc(C(=O)NC4CCN(C)CC4)cc3OC)nc2N1N(C)C (racemic) [Compound 1, 4-(8-Dimethylamino-7-ethyl-5-methyl-6-oxo-5,6,7,8-tetrahydro-pteridin-2-ylamino)-3-methoxy-N-(1-methyl-piperidin-4-yl)-benzamide] | > 1000 | < 1000 | < 1000 | < 1000 | < 1000 | < 1000 | < 1000 | < 1000 | < 1000 | ~20 | > 1000 | < 1000 | < 1000 | > 1000 | < 1000 | < 1000 | > 1000 | > 1000 | < 1000 | < 1000 |
